Assays:
[1] = test system: p65 in the cell nucleus of RAW264.7 cells; experiment: Western blot, amount of p65 in nuclei induced by RANKL; format: cell-based; settings: KMUP-1 in advance 24 hours, RANKL 30 minutes, FIG. 8(B)
Experimental: IκBα which originally binds with NF-κB to inhibit its activity in cytoplasm is stimulated by RANKL to be phosphorylized and be hydrolyzed after separating from NF-κB. Then, the free NF-κB transfers into a cell nucleus to play a role as a transcription factor. According to the experimental result, compared with the control group, in the group induced by RANKL for 30 minutes, the IκBα in the cytoplasm is obviously phosphorylized and hydrolyzed. […] According to the result, KMUP-1 can inhibit NF-κB activation induced by RANKL. Nuclear proteins were extracted according to the instructions of NE-PER kit. 2.5×10^6 cells were plated per well in 24-well plates. […] Subsequently, the cells were added by 5.5 μ[…] and shaken for 5 seconds and then put on ice for 1 minute. After that, the cells were shaken again for 5 seconds and centrifuged (10,000 rpm, 4° C., 5 minutes). Cytoplasm and Nuclei could be separated by this process, and the supernatant was cytoplasmic proteins, and the pallet was nuclei. The supernatant was stored in an eppendorf in -80° C. b) Extraction of Nuclear Proteins The nuclear pallet was added by 500 μl PBS and centrifuged (10,000 rpm, 4° C., 5 minutes), and the supernatant was discarded. The pallet could be washed by this process and prevented contamination. […]

[2] = test system: osteoclast-like cells, OCL; experiment: Intracellular calcium (fura-2/AM), RANKL-induced calcium influx; format: cell-based; settings: 1 μM and 10 μM, FIGS. 14 and 15

Cn1c(=O)c2c(ncn2CCN2CCN(c3ccccc3Cl)CC2)n(C)c1=O [KMUP-1, 7-[2-[4-(2-Chlorophenyl)piperazin-1-yl]ethyl] theophylline]
amount of p65 in the cell nucleus induced by RANKL [1]: has the inhibiting effect on that p65 enters into a cell nucleus | RANKL-induced extracellular calcium influx [2]: can inhibit it
